Activity calls are given as the source filed them. No cut-off for these calls is given here. Peptide text beside a SMILES is read from it.
Tests used:
[1] = species: Homo sapiens; test: Inhibition of FITC-labelled LANA (1 to 23 residues) binding to recombinant human H2A/H2B harboring acidic patch at by fluorescence polarization assay
[2] = species: Homo sapiens; test: Inhibition of FITC-labelled LANA (1 to 23 residues) binding to recombinant human H2A/H2B harboring acidic patch at 100 uM by fluorescence polarization assay relative to control
[3] = (§1) Inhibition of FITC-labelled LANA peptide (1 to 23 residues) binding to human HeLa mononucleosomes by fluorescence polarization assay
[4] = test system: HeLa; test: as §1

| Compound | inhibition [1] | other results |
| --- | --- | --- |
| CSCC[C@@H]1NC(=O)CNC(=O)[C@@H]2CCCN2C(=O)[C@H](C)NC(=O)CNC(=O)[C@H]([C@@H](C)O)NC(=O)[C@H](CO)NC(=O)[C@H](CCCNC(=N)N)NC(=O)CNC(=O)[C@H](CO)NC(=O)[C@H](CCCNC(=N)N)NC(=O)[C@H](CC(C)C)NC(=O)[C@H](CCCNC(=N)N)NC1=O (cyclo(APGMRLRSGRSTG)) | Active |  |
| CSCC[C@@H]1NC(=O)CNC(=O)CNC(=O)[C@H]([C@@H](C)O)NC(=O)[C@H](CO)NC(=O)[C@H](CCCNC(=N)N)NC(=O)CNC(=O)[C@H](CO)NC(=O)[C@H](CCCNC(=N)N)NC(=O)[C@H](CC(C)C)NC(=O)[C@H](CCCNC(=N)N)NC1=O (cyclo(GGMRLRSGRST)) |  | inhibition [2]: 100%; IC50 [3]: 204 nM; Ki [3]: 61 nM; inhibition [4]: Dose-dependent effect |
| CSCC[C@@H]1NC(=O)[C@H]([C@@H](C)O)NC(=O)[C@H](CO)NC(=O)[C@H](CCCNC(=N)N)NC(=O)CNC(=O)[C@H](CO)NC(=O)[C@H](CCCNC(=N)N)NC(=O)[C@H](CC(C)C)NC(=O)[C@H](CCCNC(=N)N)NC1=O (cyclo(GRSTMRLRS)) | Active |  |
| Ac-GMRLRSGRSTG-NH2 | Active | IC50 [3]: 614 nM; inhibition [4]: Dose-dependent effect |
| Ac-PGMRLRSGRSHGA-NH2 | Active |  |
| Ac-PGMRLRSGRSKGA-NH2 | Active |  |
| Ac-PGMRLRSGRSTGA-NH2 |  | inhibition [2]: 40% |
| Ac-PGVRLRSGRSTGA-NH2 | Active |  |

Continued, in another order:

| inhibition [1] | Compound | other results |
| --- | --- | --- |
| Active | Ac-MRLRSGRST-NH2 |  |
| Active | Ac-PGFRLRSGRSTGA-NH2 |  |
| Active | Ac-PGIRLRSGRSTGA-NH2 |  |
| Active | Ac-PGLRLRSGRSTGA-NH2 |  |
| Active | Ac-PGMRLRSGRSRGA-NH2 |  |
